In ChEMBL document CHEMBL1156159, “Synthesis, cytotoxic activity and structure-activity relationships of hedychenone analogues” (Bioorg Med Chem Lett, 2010):
Converted amounts (≈) assume the structure as drawn.

Tests used:
[1] = system: MCF7; experiment: Cytotoxicity against human MCF7 cells after 24 hrs; format: functional, cell-based
[2] = system: HL-60; experiment: Cytotoxicity against human HL60 cells after 24 hrs; format: functional, cell-based
[3] = system: CHO; experiment: Cytotoxicity against CHO cells after 24 hrs; format: cell-based, Cricetulus griseus
[4] = system: A-375; experiment: Cytotoxicity against human A375 cells after 24 hrs; format: functional, cell-based
[5] = system: A549; experiment: Cytotoxicity against human A549 cells after 24 hrs; format: functional, cell-based
[6] = Homo sapiens, MCF7, 24 h, read-out: IC50
[7] = Homo sapiens, HL-60, 24 h, read-out: IC50
[8] = Cricetulus griseus, CHO, 24 h, read-out: IC50
[9] = Homo sapiens, A-375, 24 h, read-out: IC50
[10] = Homo sapiens, A549, 24 h, read-out: IC50

SMILES	IC50 [1, 6] [µg/mL]	IC50 [2, 7] [µg/mL]	IC50 [3, 8] [µg/mL]	IC50 [4, 9] [µg/mL]	IC50 ([1]; mcf7) [µg/mL]	IC50 ([2]; hl-60) [µg/mL]	IC50 ([3]; cho) [µg/mL]	IC50 ([4]; a-375) [µg/mL]	IC50 [5, 10] [µg/mL]	IC50 ([5]; a549) [µg/mL]
CC1=CC(=O)[C@H]2C(C)(C)CCC[C@]2(C)[C@H]1/C=C/C1=CC2OC1C1C(=O)c3ccccc3C(=O)C21 (stereo in doubt; 3k)	15 (≈ 32.8 µM)	13.7 (≈ 30 µM)	7.94 (≈ 17.4 µM)	18.7 (≈ 41 µM)						
CC1=CC(=O)[C@H]2C(C)(C)CCC[C@]2(C)[C@H]1/C=C/C1=CC2OC1C1C(=O)c3ccccc3C(=O)C21 (stereo in doubt; 3l)					14.72 (≈ 32.2 µM)	13.88 (≈ 30.4 µM)	7.91 (≈ 17.3 µM)	18.64 (≈ 40.8 µM)	34.5 (≈ 75.5 µM)	
CC1=CC(=O)[C@H]2C(C)(C)CCC[C@]2(C)[C@H]1/C=C/C1=C[C@H]2O[C@H]1[C@@H]1C(=O)C=CC(=O)[C@@H]12	15.4 (≈ 37.9 µM)	14.7 (≈ 36.2 µM)	8.28 (≈ 20.4 µM)	20.1 (≈ 49.5 µM)						
CC1=CC(=O)[C@H]2C(C)(C)CCC[C@]2(C)[C@H]1CCc1ccoc1	> 100	87 (≈ 290 µM)		60 (≈ 200 µM)						
CC1(C)CCC[C@]2(C)[C@@H](/C=C/c3ccoc3)C(CO)=CC(=O)[C@@H]12 [YUNNACORONARIN D]	34.3 (≈ 109 µM)	26.2 (≈ 83.3 µM)	39 (≈ 124 µM)	40 (≈ 127 µM)					50.1 (≈ 159 µM)	
CC1=CC(=O)[C@H]2C(C)(C)CCC[C@]2(C)[C@H]1C=O	38.1 (≈ 163 µM)	39.7 (≈ 169 µM)	34.9 (≈ 149 µM)	35.1 (≈ 150 µM)						
CC1=CC(=O)[C@H]2C(C)(C)CCC[C@]2(C)[C@H]1/C=C/C1=CC2OC1C1CNCC21 (stereo in doubt; 3p)					31.98 (≈ 87 µM)	43.18 (≈ 117 µM)				
COC1CCC2C3C=C(/C=C/[C@H]4C(C)=CC(=O)[C@H]5C(C)(C)CCC[C@]45C)C(O3)C2O1 (stereo in doubt; 3g)	28.1 (≈ 68.1 µM)	27.7 (≈ 67.1 µM)	13.1 (≈ 31.7 µM)	30.2 (≈ 73.2 µM)					43.2 (≈ 105 µM)	
CC1(C)CCC[C@@]2(C)[C@H]1C(=O)CC(C)(C1(C)CC(=O)[C@H]3C(C)(C)CCC[C@]3(C)C1/C=C/c1ccoc1)[C@@H]2/C=C/c1ccoc1 (stereo partly drawn)	11.2 (≈ 18.7 µM)	13.9 (≈ 23.1 µM)	6.91 (≈ 11.5 µM)	16.8 (≈ 28.1 µM)					23 (≈ 38.4 µM)	
CC1=CC(=O)[C@H]2C(C)(C)CCC[C@]2(C)[C@H]1/C=C/C1=C[C@H]2O[C@H]1[C@H]1C(=O)OC(=O)[C@H]12 (stereo in doubt; 3c)					23.18 (≈ 58.5 µM)	21.73 (≈ 54.8 µM)	11.08 (≈ 27.9 µM)	27.84 (≈ 70.2 µM)		
CC1=CC(=O)[C@H]2C(C)(C)CCC[C@]2(C)[C@H]1/C=C/C1=C[C@H]2O[C@H]1[C@H]1C(=O)C=CC(=O)[C@H]12	15.7 (≈ 38.7 µM)	14.1 (≈ 34.6 µM)	8.19 (≈ 20.1 µM)	19 (≈ 46.8 µM)					35.9 (≈ 88.3 µM)	
CC1=CC(=O)[C@H]2C(C)(C)CCC[C@]2(C)[C@H]1/C=C/C1=CC2OC1C1OCCC21 (stereo partly drawn)	30.1 (≈ 81.8 µM)	38.4 (≈ 104 µM)							48.4 (≈ 131 µM)	
CC1=CC(=O)[C@H]2C(C)(C)CCC[C@]2(C)[C@H]1[C@@H]1O[C@@H]1c1ccoc1	20.1 (≈ 63.9 µM)	19.4 (≈ 61.8 µM)	9.61 (≈ 30.6 µM)	26.1 (≈ 83.1 µM)					31.1 (≈ 99.1 µM)	
CC1=CC(=O)[C@H]2C(C)(C)CCC[C@]2(C)[C@H]1/C=C/C1=C[C@@H]2O[C@@H]1[C@H]1C(=O)OC(=O)[C@H]12	24.1 (≈ 60.8 µM)	28.1 (≈ 70.9 µM)	12.1 (≈ 30.6 µM)	30.4 (≈ 76.7 µM)						
CC1=CC(=O)[C@H]2C(C)(C)CCC[C@]2(C)[C@H]1/C=C/C1=CC2OC1C1CNCC21 (stereo in doubt; 3o)	36.7 (≈ 99.9 µM)	39.9 (≈ 108 µM)	19.2 (≈ 52.2 µM)							
CC1CC(=O)[C@H]2C(C)(C)CCC[C@]2(C)[C@H]1CCc1ccoc1 (stereo partly drawn)	> 100	> 100		> 100						
CC1=CC(=O)[C@H]2C(C)(C)CCC[C@]2(C)[C@H]1/C=C/c1ccoc1 [HEDYCHENONE]	19.4 (≈ 65 µM)	17.7 (≈ 59.2 µM)	8.2 (≈ 27.5 µM)	21.1 (≈ 70.8 µM)					33.1 (≈ 111 µM)	
COC1CCC2C3C=C(/C=C/[C@H]4C(C)=CC(=O)[C@H]5C(C)(C)CCC[C@]45C)C(O3)C2O1 (stereo in doubt; 3i)					29.3 (≈ 71 µM)	28.41 (≈ 68.9 µM)	13.91 (≈ 33.7 µM)	31.12 (≈ 75.4 µM)		47.71 (≈ 116 µM)
CC1=CC(=O)[C@H]2C(C)(C)CCC[C@]2(C)[C@H]1/C=C/C1=CC2OC1C1CCOC21 (stereo partly drawn)	33.9 (≈ 91.9 µM)	38 (≈ 103 µM)		43.1 (≈ 117 µM)						
CC1=CC(=O)[C@H]2C(C)(C)CCC[C@]2(C)[C@H]1/C=C/C1=C[C@H]2O[C@H]1[C@@H]1C(=O)OC(=O)[C@@H]12	18.6 (≈ 46.9 µM)	17 (≈ 42.9 µM)	10.4 (≈ 26.3 µM)	20.4 (≈ 51.4 µM)					39.9 (≈ 101 µM)	
COC1CCC2C3OC(C=C3/C=C/[C@H]3C(C)=CC(=O)[C@H]4C(C)(C)CCC[C@]34C)C2O1 (stereo in doubt; 3j)							14.03 (≈ 34 µM)			
COC1CCC2C3OC(C=C3/C=C/[C@H]3C(C)=CC(=O)[C@H]4C(C)(C)CCC[C@]34C)C2O1 (stereo in doubt; 3h)	28 (≈ 67.8 µM)	27.1 (≈ 65.8 µM)	14.1 (≈ 34.3 µM)	32.1 (≈ 77.9 µM)					43 (≈ 104 µM)	
CC1=CC(=O)[C@H]2C(C)(C)CCC[C@]2(C)[C@H]1/C=C/C1=C[C@H]2O[C@H]1[C@H]1C(=O)OC(=O)[C@H]12 (stereo in doubt; 3b)	17 (≈ 42.9 µM)	16.9 (≈ 42.7 µM)	9.11 (≈ 23 µM)	20 (≈ 50.5 µM)					36.4 (≈ 91.9 µM)	
